In ChEMBL document CHEMBL1151577, “The inhibition of C5a receptor binding by analogs of L-156,602, a cyclic hexadepsipeptide antibiotic” (Bioorg Med Chem Lett, 1992):
≈ marks a conversion by molar mass, not a printed value.

What was measured:
[1] = molecular target: T1, C5a anaphylatoxin chemotactic receptor 1 (Homo sapiens) (UniProt P21730); assay: Inhibition of radiolabeled C5a binding to its membrane bound C5a anaphylatoxin chemotactic receptor
T1 sequence (whole entry): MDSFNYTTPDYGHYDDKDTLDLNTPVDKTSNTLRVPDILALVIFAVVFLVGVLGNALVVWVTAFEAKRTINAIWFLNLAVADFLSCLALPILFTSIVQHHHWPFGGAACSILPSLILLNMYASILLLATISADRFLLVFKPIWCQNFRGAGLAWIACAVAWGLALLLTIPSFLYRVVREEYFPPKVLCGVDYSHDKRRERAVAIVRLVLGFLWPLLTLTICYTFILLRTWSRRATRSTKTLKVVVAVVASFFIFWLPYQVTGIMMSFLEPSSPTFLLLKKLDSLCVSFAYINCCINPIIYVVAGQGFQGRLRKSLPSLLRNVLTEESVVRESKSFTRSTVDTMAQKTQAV

[2] = molecular target: T1, C5a anaphylatoxin chemotactic receptor 1 (Homo sapiens); assay: Nonspecific degranulation of polymorho neutrophils as measured by myeloperoxidase (MPO) release in a whole functional cell assay
[3] = molecular target: T2, C5a anaphylatoxin chemotactic receptor 1 (Homo sapiens, UniProt P21730); assay: Inhibitory activity against purified binding C5a anaphylatoxin chemotactic receptor
T2 sequence (P21730 whole entry): T1 sequence (whole entry)

[4] = molecular target: T2, C5a anaphylatoxin chemotactic receptor 1; assay: Inhibitory activity for C5a anaphylatoxin chemotactic receptor binding using radiolabeled C5a receptor on neutrophil membranes (~2.0 uM)
[5] = molecular target: T2, C5a anaphylatoxin chemotactic receptor 1; assay: Inhibitory activity against radiolabeled C5a receptor on neutrophil membranes expressing C5a anaphylatoxin chemotactic receptor
[6] = molecular target: T1, C5a anaphylatoxin chemotactic receptor 1 (Homo sapiens); assay: Compound was evaluated for inhibition of radiolabeled C5a binding to its membrane C5a anaphylatoxin chemotactic receptor
Homo sapiens = organism: Homo sapiens; assay: Degranulation of polymorho neutrophils as measured by myeloperoxidase (MPO) release in a whole functional cell assay

SMILES | Activity [1] [µg/mL] | Concentration causing nonspecific degranulation (MPO release) [2] [µg/mL] | also measured
CC[C@H](C)C[C@H]1CC[C@](O)([C@](C)(O)C(=O)N[C@@H]2C(=O)N3NCCC[C@@H]3C(=O)N(CC(=O)OC(C)(C)C)[C@@H](C)C(=O)NCC(=O)N3NCCC[C@H]3C(=O)N(O)[C@H](C)C(=O)O[C@H]2C(C)C)O[C@@H]1C | 100 | > 50 | 
CC[C@H](C)C[C@H]1CC[C@](O)([C@](C)(O)C(=O)N[C@@H]2C(=O)N3NCCC[C@@H]3C(=O)N(O)[C@@H](C)C(=O)NCC(=O)N3NCCC[C@H]3C(=O)N(C)[C@H](C)C(=O)O[C@H]2C(C)C)O[C@@H]1C | 5 | 4 | 
CC[C@H](C)C[C@H]1CC[C@](O)([C@](C)(O)C(=O)N[C@@H]2C(=O)N3[C@H](CCCN3C)C(=O)N(O)[C@@H](C)C(=O)NCC(=O)N3[C@@H](CCCN3C)C(=O)N(O)[C@H](C)C(=O)O[C@H]2C(C)C)O[C@@H]1C | 11 | 10 | 
CC(=O)C(=O)N[C@@H]1C(=O)N2NCCC[C@@H]2C(=O)N(O)[C@@H](C)C(=O)NCC(=O)N2NCCC[C@H]2C(=O)N(O)[C@H](C)C(=O)O[C@H]1C(C)C | > 100 | > 13 | 
CC[C@H](C)C[C@H]1CC[C@](O)([C@](C)(O)C(=O)N[C@@H]2C(=O)N3NCCC[C@@H]3C(=O)N(OC)[C@@H](C)C(=O)NCC(=O)N3NCCC[C@H]3C(=O)N(OC)[C@H](C)C(=O)O[C@H]2C(C)C)O[C@@H]1C | 6 | 3 | 
CC[C@H](C)C[C@H]1CC[C@](O)([C@](C)(O)C(=O)N[C@@H]2C(=O)N3NCCC[C@@H]3C(=O)N(C(C)=O)[C@@H](C)C(=O)NCC(=O)N3NCCC[C@H]3C(=O)N(O)[C@H](C)C(=O)O[C@H]2C(C)C)O[C@@H]1C | 4 | 0.3 | 
CC[C@H](C)C[C@H]1CC[C@](O)([C@](C)(O)C(=O)N[C@@H]2C(=O)N3NCCC[C@@H]3C(=O)N(O)[C@@H](C)C(=O)N[C@@H](C)C(=O)N3NCCC[C@H]3C(=O)N(O)[C@H](C)C(=O)O[C@H]2C(C)C)O[C@@H]1C | 60 |  | 
CC[C@H](C)C[C@H]1CC[C@](O)([C@](C)(O)C(=O)N[C@@H]2C(=O)N[C@H](CCCN)C(=O)N(O)[C@@H](C)C(=O)NCC(=O)N3NCCC[C@H]3C(=O)N(O)[C@H](C)C(=O)O[C@H]2C(C)C)O[C@@H]1C | 60 | > 200 | 
CC[C@H](C)C[C@H]1CC[C@](O)([C@](C)(O)C(=O)N[C@@H]2C(=O)N[C@H](CCCNC(C)=O)C(=O)N(O)[C@@H](C)C(=O)NCC(=O)N3NCCC[C@H]3C(=O)N(O)[C@H](C)C(=O)O[C@H]2C(C)C)O[C@@H]1C | > 100 | > 50 | 
CCC(C)C[C@H]1CC[C@H]([C@](C)(O)C(=O)N[C@@H]2C(=O)N3NCCC[C@@H]3C(=O)N(O)[C@@H](C)C(=O)NCC(=O)N3NCCC[C@H]3C(=O)N(O)[C@H](C)C(=O)O[C@H]2C(C)C)O[C@@H]1C (single isomer, unassigned) | 3.6 | 0.3 | 
CC(O)C(=O)N[C@@H]1C(=O)N2NCCC[C@@H]2C(=O)N(O)[C@@H](C)C(=O)NCC(=O)N2NCCC[C@H]2C(=O)N(O)[C@H](C)C(=O)O[C@H]1C(C)C (stereo in doubt; 26) | > 100 | > 20 | 
CC[C@@H](C)CC1CCC(O)([C@](C)(O)C(=O)NC2C(=O)N3NCCC[C@@H]3C(=O)N(O)[C@@H](C)C(=O)NCCC(=O)N3NCCC[C@H]3C(=O)N(O)[C@H](C)C(=O)O[C@H]2C(C)C)OC1C (stereo not given in full) | > 100 | > 50 | 
CC[C@H](C)C[C@H]1CC[C@](O)([C@](C)(O)C(=O)N[C@@H]2C(=O)N3NCCC[C@@H]3C(=O)N(OC)[C@@H](C)C(=O)NCC(=O)N3NCCC[C@H]3C(=O)N(O)[C@H](C)C(=O)O[C@H]2C(C)C)O[C@@H]1C | 5 | 0.3 | 
CC[C@H](C)C[C@H]1CC[C@](O)([C@](C)(O)C(=O)N[C@@H]2C(=O)N3NCCC[C@@H]3C(=O)N(C)[C@@H](C)C(=O)NCC(=O)N3NCCC[C@H]3C(=O)N(O)[C@H](C)C(=O)O[C@H]2C(C)C)O[C@@H]1C | 5 | 2 | 
CC[C@H](C)C[C@H]1CC[C@](O)([C@](C)(O)C(=O)N[C@@H]2C(=O)N3NCCC[C@@H]3C(=O)N[C@@H](C)C(=O)NCC(=O)N3NCCC[C@H]3C(=O)N(O)[C@H](C)C(=O)O[C@H]2C(C)C)O[C@@H]1C | > 100 |  | 
CC[C@H](C)C[C@H]1CC[C@](O)([C@](C)(O)C(=O)N[C@@H]2C(=O)N3NCCC[C@@H]3C(=O)N(OC)[C@@H](C)C(=O)NCC(=O)N3NCCC[C@H]3C(=O)N(C)[C@H](C)C(=O)O[C@H]2C(C)C)O[C@@H]1C | 7 | 20 | 
CC[C@H](C)C[C@H]1CC[C@](O)([C@](C)(O)C(=O)N[C@@H]2C(=O)N3NCCC[C@@H]3C(=O)N(O)[C@@H](C)C(=O)N[C@H](C)C(=O)N3NCCC[C@H]3C(=O)N(O)[C@H](C)C(=O)O[C@H]2C(C)C)O[C@@H]1C | > 100 | > 100 | 
CC(O)C(=O)N[C@@H]1C(=O)N2NCCC[C@@H]2C(=O)N(O)[C@@H](C)C(=O)NCC(=O)N2NCCC[C@H]2C(=O)N(O)[C@H](C)C(=O)O[C@H]1C(C)C (stereo in doubt; 25) | 23 | 23 | 
CCC(C)C[C@H]1CC[C@](O)([C@](C)(O)C(=O)N[C@@H]2C(=O)N3NCCC[C@@H]3C(=O)N(O)[C@@H](C)C(=O)NCC(=O)N3NCCC[C@H]3C(=O)N[C@H](C)C(=O)OC2C)O[C@@H]1C (single isomer, unassigned) | 2 | 1 | 
CC(C)[C@@H]1OC(=O)[C@@H](C)N(O)C(=O)[C@@H]2CCCNN2C(=O)CNC(=O)[C@H](C)N(O)C(=O)[C@H]2CCCNN2C(=O)[C@H]1NC(=O)[C@@](C)(O)CCCc1ccccc1 | > 100 | 9 | 
CC[C@H](C)C[C@H]1CC[C@](O)([C@](C)(O)C(=O)N[C@@H]2C(=O)N3NCCC[C@@H]3C(=O)N(O)[C@@H](C)C(=O)NCC(=O)N3NCCC[C@H]3C(=O)N[C@H](C)C(=O)O[C@H]2C(C)C)O[C@@H]1C | 21 | 7 | 
CCC(C)C[C@H]1CC[C@](O)([C@](C)(O)C(=O)N[C@H]2COC(=O)[C@@H](C)NC(=O)[C@@H]3CCCNN3C(=O)CNC(=O)[C@H](C)N(O)C(=O)[C@H]3CCCNN3C2=O)O[C@@H]1C (single isomer, unassigned) | > 100 | 26 | 
CC[C@H](C)C[C@H]1CC[C@](O)([C@](C)(O)C(=O)N[C@@H]2C(=O)N3NCCC[C@@H]3C(=O)N(O)[C@@H](C)C(=O)NCC(=O)N3NCCC[C@H]3C(=O)N(OC)[C@H](C)C(=O)O[C@H]2C(C)C)O[C@@H]1C | 2 | 2 | 
CC[C@H](C)C[C@H]1CC[C@](O)([C@](C)(O)C(=O)N[C@@H]2C(=O)N3NCCC[C@@H]3C(=O)N(OCc3ccccc3)[C@@H](C)C(=O)NCC(=O)N3NCCC[C@H]3C(=O)N(O)[C@H](C)C(=O)O[C@H]2C(C)C)O[C@@H]1C | 4 | 0.6 | 
CCC(C)C[C@H]1CC[C@](O)([C@](C)(O)C(=O)N[C@@H]2C(=O)N3NCCC[C@@H]3C(=O)N[C@@H](C)C(=O)NCC(=O)N3NCCC[C@H]3C(=O)N[C@H](C)C(=O)O[C@H]2C(C)C)O[C@@H]1C (single isomer, unassigned) | 40 | > 50 | 
CC[C@H](C)C[C@H]1CC[C@](O)([C@](C)(O)C(=O)N[C@@H]2C(=O)N3CCCC[C@@H]3C(=O)N(O)[C@@H](C)C(=O)NCC(=O)N3NCCC[C@H]3C(=O)N(O)[C@H](C)C(=O)O[C@H]2C(C)C)O[C@@H]1C | 75 | 20 | 
CC[C@H](C)C[C@H]1CC[C@](O)([C@](C)(O)C(=O)N[C@@H]2C(=O)N3NCCC[C@@H]3C(=O)N(OCc3ccccc3)[C@@H](C)C(=O)NCC(=O)N3NCCC[C@H]3C(=O)N[C@H](C)C(=O)O[C@H]2C(C)C)O[C@@H]1C | > 100 | 18 | 
CC(C)[C@@H]1OC(=O)[C@@H](C)N(O)C(=O)[C@@H]2CCCNN2C(=O)CNC(=O)[C@H](C)N(O)C(=O)[C@H]2CCCNN2C(=O)[C@H]1NC(=O)[C@](C)(O)CCCc1ccccc1 | 100 | 12 | 
CC[C@H](C)C[C@H]1CC[C@](O)([C@](C)(O)C(=O)N[C@@H]2C(=O)N3NCCC[C@@H]3C(=O)N(O)[C@@H](C)C(=O)NCC(=O)N3NCCC[C@H]3C(=O)N(O)[C@H](C)C(=O)O[C@H]2C(C)C)O[C@@H]1C |  | 0.27 | IC50 [3]: 5.95 µM; IC50 [4]: 2.02 µM; IC50 [5]: 5.95 µM; Activity [6]: 1.8 µg/mL; EC50 (Homo sapiens): 0.28 µg/mL (≈ 0.333 µM)
